Experiment [1] has as its target T1, Glk1 (Synechococcus elongatus, UniProt Q31RR6).
T1 construct: gene glk
T1 sequence (Q31RR6 1-345): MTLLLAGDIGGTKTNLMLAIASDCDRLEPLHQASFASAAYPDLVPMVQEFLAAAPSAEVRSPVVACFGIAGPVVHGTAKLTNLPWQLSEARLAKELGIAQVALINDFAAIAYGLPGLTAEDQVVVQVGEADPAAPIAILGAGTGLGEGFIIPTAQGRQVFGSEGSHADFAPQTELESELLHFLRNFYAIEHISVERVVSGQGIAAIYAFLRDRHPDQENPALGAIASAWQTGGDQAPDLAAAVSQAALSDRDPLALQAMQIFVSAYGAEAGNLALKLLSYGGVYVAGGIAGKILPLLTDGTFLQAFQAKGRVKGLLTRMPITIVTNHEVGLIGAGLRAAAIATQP
The experiment in a line: PK/LDH-coupled sugar phosphorylation assay, […] nm. The note with it: 10 mM sugar, 2.5 mM ATP, 4 mM MgCl2, 20 mM KCl, Tris-HCl pH 7.8. It is filed as biochemical.

The target of experiment [2] is T2, Glk2 (Synechococcus elongatus, UniProt Q31LC8).
T2 construct: gene Synpcc7942_2111
T2 sequence (Q31LC8 1-302): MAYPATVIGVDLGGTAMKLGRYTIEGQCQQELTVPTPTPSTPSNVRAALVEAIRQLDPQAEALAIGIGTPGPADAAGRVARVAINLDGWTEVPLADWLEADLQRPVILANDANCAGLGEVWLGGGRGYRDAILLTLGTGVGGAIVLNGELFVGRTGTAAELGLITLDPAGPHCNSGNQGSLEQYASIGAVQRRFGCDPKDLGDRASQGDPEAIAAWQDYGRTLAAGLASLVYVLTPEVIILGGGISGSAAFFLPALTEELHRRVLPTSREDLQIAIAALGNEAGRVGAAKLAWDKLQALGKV
The experiment in a line: PK/LDH-coupled sugar phosphorylation assay, […] nm. It is filed as biochemical. As to conditions: 10 mM sugar, 2.5 mM ATP, 4 mM MgCl2, 20 mM KCl, Tris-HCl pH 7.8.

Consider `OC[C@H]1OC(O)[C@H](O)[C@@H](O)[C@@H]1O` (some centres unmarked) [glucose], for which the “PK/LDH-coupled sugar phosphorylation assay, 340 nm” value in experiment [1] and in experiment [2] was “both the two glucokinases showed phosphorylation activities on some other sugars besides glucose” throughout.
